Assay results: the supplement of paper PMC11127212

Assays:
[1] = collision cross section (TWIMS, N2) of ion [M-H]-; higher = larger gas-phase ion cross section; conditions: ionization: ESI negative; LC: HILIC, pH 9.0 ammonium acetate
Protocol: (§1)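 Reference standards (20-100 uM) were separated by HILIC UPLC (BEH HILIC, 45 °C): acidic pH 3.0 ammonium formate/formic acid for ESI+ and basic pH 9.0 ammonium acetate/ammonia for ESI-. They were analysed on a Synapt G2-Si traveling-wave IMS-QTOF with nitrogen drift gas (WH 30 V; WV 800 m/s in ESI+ and 1000 m/s in ESI-).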

[2] = retention time on BEH HILIC column (20 min gradient, 0.4 mL/min); higher = later elution; conditions: LC: HILIC
Protocol: as §1

[3] = collision cross section (TWIMS, N2) of ion [M+Na]+; higher = larger gas-phase ion cross section; conditions: ionization: ESI positive; LC: HILIC, pH 3.0 ammonium formate
Protocol: as §1, with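 “ESI-). CCS (TWCCSN2, Å2) was calibrated with Major Mix IMS/TOF and LockCCS leucine enkephalin; inter-day RSD was <1%.” for “ESI-).”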

[4] = collision cross section (TWIMS, N2) of ion [M+H]+; higher = larger gas-phase ion cross section; conditions: ionization: ESI positive; LC: HILIC, pH 3.0 ammonium formate
Protocol: as §1

[5] = collision cross section (TWIMS, N2) of ion [M+Na-2H]-; higher = larger gas-phase ion cross section; conditions: ionization: ESI negative; LC: HILIC, pH 9.0 ammonium acetate
Protocol: as §1, with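 “ESI-). CCS (TWCCSN2, Å2) was calibrated with Major Mix IMS/TOF and LockCCS leucine enkephalin; inter-day RSD was <1%.” for “ESI-).”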

[6] = collision cross section (TWIMS, N2) of ion [M+H-H2O]+; higher = larger gas-phase ion cross section; conditions: ionization: ESI positive; LC: HILIC, pH 3.0 ammonium formate
Protocol: as §1, with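 “ESI-). CCS (TWCCSN2, Å2) was calibrated with Major Mix IMS/TOF and LockCCS leucine enkephalin; inter-day RSD was <1%.” for “ESI-).”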

[7] = ionization: ESI negative, pH 9.0 ammonium acetate
[8] = ionization: ESI positive, pH 3.0 ammonium formate

Row | collision cross section [1] [Å²] | retention time on BEH HILIC column [2, 7] [min] | retention time on BEH HILIC column [2, 8] [min] | collision cross section [3] [Å²] | collision cross section [4] [Å²] | collision cross section [5] [Å²] | collision cross section [6] [Å²] | Compound
1 | – | 0.99 | 0.99 | 139.98 | – | 132.19 | – | O=C(O)Cc1cccc(O)c1 [3-hydroxyphenylacetic acid]
2 | 126.41 | 1.41 | 1.38 | – | – | – | 126.57 | O=C(O)c1cc(O)ccc1O [Gentisic acid]
3 | 122.73 | 0.75 | 0.77 | – | 126.19 | – | 123.87 | Cc1cccc(O)c1 [m-cresol]
4 | – | 7.28 | – | – | – | 129.41 | – | O=C(O)c1ccc(C(=O)O)o1 [2,5-furandicarboxylic acid]
5 | 139.07 | 2.21 | 2.16 | 146.37 | 138.49 | – | – | O=C(O)CNC(=O)c1ccccc1 [Hippuric acid]
6 | 141.65 | 6.79 | 6.67 | 143.2 | 141.09 | – | – | N[C@@H](Cc1ccc(O)cc1)C(=O)O [L-tyrosine]
7 | 126.47 | 1.12 | 0.9 | – | – | – | 121.78 | Nc1c(O)cccc1C(=O)O [3-hydroxyanthranilic acid]
8 | – | – | 5.74 | 149.75 | 146.07 | – | 140.8 | Nc1ccccc1C(=O)C[C@H](N)C(=O)O [L-kynurenine]
9 | 128.56 | 12.7 | 2.56 | – | – | – | 130.12 | O=C(O)c1cccnc1C(=O)O [Quinolinic acid]
10 | 121.16 | 2.74 | 2.74 | 128.31 | 122.92 | – | – | O=C(O)c1cccnc1 [Nicotinic acid]
11 | 144.75 | 4.41 | 2.72 | – | – | – | 135.63 | COc1cc([C@H](O)C(=O)O)ccc1O [Vanillylmandelic acid]
12 | 123.01 | 0.67 | 0.73 | – | – | – | 124.91 | O=C(O)c1ccc(O)cc1 [4-hydroxybenzoic acid]
13 | 140.21 | 5.61 | 5.91 | – | – | – | 136.45 | CNC[C@H](O)c1ccc(O)c(O)c1 [Epinephrine]

Further lines, the molecule ahead of its results:

Row | Compound | collision cross section [1] [Å²] | retention time on BEH HILIC column [2, 7] [min] | retention time on BEH HILIC column [2, 8] [min] | collision cross section [3] [Å²] | collision cross section [4] [Å²] | collision cross section [5] [Å²] | collision cross section [6] [Å²]
14 | NCCC(=O)N[C@@H](Cc1cnc[nH]1)C(=O)O [Carnosine] | 154.88 | 11.7 | 11.8 | 152.28 | 151.65 | – | –
15 | Nc1ncnc2nc[nH]c12 [Adenine] | 126.29 | 2.71 | 2.59 | 134.02 | 125.13 | – | –
16 | CSCC[C@H](N)C(=O)O [L-methionine] | 132.57 | 6.8 | 6.59 | 135.16 | 131.48 | – | –
17 | Nc1nc(=O)c2nc(CNc3ccc(C(=O)N[C@@H](CCC(=O)O)C(=O)O)cc3)cnc2[nH]1 [Folic acid] | 187.54 | 11.4 | 6.7 | 201.44 | 196.77 | – | –
18 | O=C(O)[C@@H]1CCCN1 [L-proline] | 116.46 | 7.23 | 7.22 | 130.65 | 123.7 | – | –
19 | Nc1nc2c(ncn2[C@@H]2O[C@@H]3COP(=O)(O)O[C@H]3[C@H]2O)c(=O)[nH]1 [cGMP] | 172.34 | 6.9 | 6.92 | 178.55 | 171.22 | – | –
20 | C[N+](C)(C)CC(=O)O [Betaine] | – | – | 7.16 | 132.22 | 125.33 | – | –
21 | N=C(NCCC[C@H](N)C(=O)O)N[C@@H](CC(=O)O)C(=O)O [Arginosuccinic acid] | 164.65 | 12.7 | 11.2 | – | – | – | 160.05
22 | Cc1c[nH]c(=O)[nH]c1=O [Thymine] | 120.89 | 1.03 | 1.05 | – | 120.81 | – | 122.06
23 | CN1CC(=O)NC1=N [Creatinine] | 120.56 | 1.98 | 2.79 | 129.07 | 120.17 | – | –
24 | CCCCCC/C=C\CCCCCCCC(=O)O [Palmitoleic acid] | 173.54 | 1.03 | 0.79 | – | 175.21 | – | 161.08
25 | O=C(O)CNC(=O)Cc1ccccc1 [Phenylacetylglycine] | 146.28 | 2.16 | 2.11 | – | 142.08 | – | 138.2
26 | O=C(O)[C@H]1O[C@H](O)[C@H](O)[C@@H](O)[C@@H]1O [Glucuronic acid] | 129.91 | 8.46 | 0.72 | – | – | – | 134.39
27 | CN(CC(=O)O)C(=N)N [Creatine] | – | – | 7.83 | – | 122.23 | – | 122.05
28 | O=c1cc[nH]c(=O)[nH]1 [Uracil] | 115.77 | 1.08 | 1.08 | – | 120.27 | – | 120.58
29 | O=C(O)/C=C\C(=O)O [Maleic acid] | – | – | 0.82 | – | – | – | 114.1
30 | CC(C)(CO)[C@@H](O)C(=O)NCCC(=O)O [Pantothenic acid] | 146.44 | 2.08 | 1.96 | 150.01 | 145.63 | – | 144.55
31 | C/C(=C\C(=O)O)CC(=O)O [3-methylglutaconic acid] | – | 1.75 | 1.45 | 132.11 | – | 131.48 | –
32 | C/C(=C/C(=O)O)C(=O)O [Citraconic acid] | 120.54 | 0.99 | 0.99 | – | – | – | 124.18
33 | OC[C@H]1O[C@@H](O[C@H]2[C@H](O)[C@@H](O)[C@@H](O)O[C@@H]2CO)[C@H](O)[C@@H](O)[C@H]1O [D-lactose] | 172.39 | 7.33 | 6.42 | 171.29 | – | – | –
34 | O=C(O)[C@@H]1C[C@@H](O)CN1 [Hydroxyproline] | 126.62 | 7.55 | 7.47 | – | 125.85 | – | 123.91
35 | O=C(O)CCCC(=O)C(=O)O [Oxoadipic acid] | 128.96 | 5.03 | 4.84 | 136.98 | – | – | –
36 | OC[C@H]1O[C@@H](n2cnc3c(O)ncnc32)[C@H](O)[C@@H]1O [Inosine] | 159.47 | 3.4 | 2.31 | 166.42 | 155.86 | – | –
